Source: patent publication US6303630A, “Diarylsulfone non-nucleoside reverse transcriptase inhibitors of human immunodeficiency virus” (University of the Sciences in Philadelphia, priority 2000, dated 2001)
pEC50, pIC50: −log10 of the molar value. Where two headings read alike, the source gives them in different places.

Legend:
HIV-1 = test: NCI in vitro anti-HIV drug screen: XTT-formazan assay, protection of T4 lymphocytes (CEM) from HIV-1 cytopathic effects; format: cell-based, human immunodeficiency virus (HIV-1); settings: for TI50 (IC/EC), Therapeutic Index: IC50/EC50
Experimental: Compounds of the present invention were evaluated for anti-HIV efficacy by the National Cancer Institute's (NCI) In Vitro Anti AIDS Drug Discovery Program.
(§1) The NCI procedure is fully described, for example, in a bulletin provided by the National Institutes of Health, National Cancer Institute, Bethesda, Md. 20892, all of which is incorporated herein by reference. As related in the NCI bulletin, the procedure is based on O. W. Weislow et al., "New soluble-formazan assay for HIV-1 cytopathic effects: application to high flux screening of synthetic and natural products for AIDS-antiviral activity", J. Natl. Cancer Inst. 81:577-586 (1989), and is used to test for compounds active against human immunodeficiency virus (HIV), and is designed to detect compounds active at any stage of the virus reproductive cycle. As further related in the NCI bulletin, the assay includes killing of T4 lymphocytes by HIV. Amounts of HIV are added to cells, with a minimum of two cycles of virus reproduction found to be necessary to obtain the required cell killing. Compounds that interact with virions, cells, or virus gene-products to interfere with viral activities will protect cells from cytolysis. All were compared with a positive (e.g., AZT-treated) control evaluation at the same time under identical conditions. The procedure is set forth as follows:
(§2) A candidate compound is first dissolved in a suitable solvent, preferably dimethyl sulfoxide, then diluted 1:100 in cell culture medium before preparing serial half-log10 dilutions. T4 lymphocytes (CEM cell line) are then added and after a brief interval HIV-1 is added, resulting in a 1:200 final dilution of the compound. Uninfected cells with the compound serve as a toxicity control, and infected and uninfected without the compound serve as basic controls. Cultures are then incubated at 37° in a 5% carbon dioxide atmosphere for 6 days. The tetrazolium salt, XTT, is added to all wells, and cultures are incubated to allow formazan color development by viable cells. Individual wells are analyzed spectrophotometrically to quantitate formazan product, and in addition are viewed microscopically for detection of viable cells and confirmation of protective activity. Drug-treated virus-infected cells are compared with drug-treated noninfected cells and with other appropriate controls (untreated infected and untreated noninfected cells, drug-containing wells without cells, etc.) on the same plate. Data are reviewed in comparison with other tests performed at the same time and a determination as to activity is made.

[1] = system: T4 lymphocytes (CEM cell line); test: Cell growth / toxicity control in uninfected T4 lymphocytes (CEM), XTT-formazan; format: cell-based; settings: for pIC50: approximate values
From the text: as §1, §2

For CNc1ccccc1S(=O)(=O)c1ccccc1[N+](=O)[O-] [Example 22, 2-(2-nitrophenylsulfonyl)-N-methylaniline], the “TI50 (IC/EC), Therapeutic Index” value (HIV-1) was 1.80 × 10^+2, the “Percent of Control, Infected” value (HIV-1; dose 2.00 × 10^-4 Molar) was 6.35% and the “Percent of Protection” value (HIV-1; dose 2.00 × 10^-4 Molar, 200 µM) was 1.42%. For the same compound, the “Percent of Control, Infected” value (HIV-1; dose 2.00 × 10^-5 Molar) was 43.49%, the “Percent of Protection” value (HIV-1; dose 2.00 × 10^-5 Molar, 20 µM) was 40.52% and the “Percent of Control, Infected” value (HIV-1; dose 2.00 × 10^-6 Molar) was 107.31%. The “Percent of Protection” value (HIV-1; dose 2.00 × 10^-6 Molar, 2 µM) was 107.69%, the “Percent of Control, Infected” value (HIV-1; dose 2.00 × 10^-7 Molar) was 99.97% and the “Percent of Protection” value (HIV-1; dose 2.00 × 10^-7 Molar, 0.2 µM) was 99.97%. For the same compound, the “Percent of Control, Infected” value (HIV-1; dose 6.32 × 10^-5 Molar) was 5.67%, the “Percent of Protection” value (HIV-1; dose 6.32 × 10^-5 Molar, 63.2 µM) was 0.71% and the “Percent of Control, Infected” value (HIV-1; dose 6.33 × 10^-6 Molar) was 100.65%. The “Percent of Protection” value (HIV-1; dose 6.33 × 10^-6 Molar, 6.33 µM) was 100.68%, the “Percent of Control, Infected” value (HIV-1; dose 6.34 × 10^-7 Molar) was 110.38% and the “Percent of Protection” value (HIV-1; dose 6.34 × 10^-7 Molar, 0.634 µM) was 110.93%. For the same compound, the “Percent of Control, Infected” value (HIV-1; dose 6.35 × 10^-8 Molar) was 88.79%, the “Percent of Protection” value (HIV-1; dose 6.35 × 10^-8 Molar, 0.0635 µM) was 88.20% and the “Percent of Control, Uninfected” value ([1]; dose 2.00 × 10^-4 Molar) was 1.98%. The “Percent of Control, Uninfected” value ([1]; dose 2.00 × 10^-5 Molar) was 36.62%, the “Percent of Control, Uninfected” value ([1]; dose 2.00 × 10^-6 Molar) was 88.74% and the “Percent of Control, Uninfected” value ([1]; dose 2.00 × 10^-7 Molar) was 92.07%. The “Percent of Control, Uninfected” value ([1]; dose 6.32 × 10^-5 Molar) was 15.40%, the “Percent of Control, Uninfected” value ([1]; dose 6.33 × 10^-6 Molar) was 87.28% and the “Percent of Control, Uninfected” value ([1]; dose 6.34 × 10^-7 Molar) was 97.06%. For the same compound, the “Percent of Control, Uninfected” value ([1]; dose 6.35 × 10^-8 Molar) was 96.33% and the pIC50 ([1]; uninfected CEM cells, 6 days, XTT, read-out: IC50 (50% inhibitory concentration for cell growth)) was 4.83.
For O=[N+]([O-])c1ccccc1S(=O)(=O)c1cc(Cl)cc2c1NCCC2 [Compound 47, 8-(2-nitrophenylsulfonyl)6chloro-1,2,3,4-tetrahydroquinoline], the pEC50 (HIV-1; Human immunodeficiency virus 1, CCRF-CEM, 144 h, HIV-1 infected CEM cells, 6 days, XTT, approximate values, read-out: EC50 (50% effective concentration against HIV cytopathic effects)) was 6.51, the inhibition at 20 µM (HIV-1; Human immunodeficiency virus 1, CCRF-CEM, dose 2.00 × 10^-5 Molar, read-out: Percent of Protection) was 86.2% and the inhibition at 2 µM (HIV-1; Human immunodeficiency virus 1, CCRF-CEM, dose 2.00 × 10^-6 Molar, read-out: Percent of Protection) was 88.8%. It also gave an inhibition at 0.2 µM (HIV-1; Human immunodeficiency virus 1, CCRF-CEM, dose 2.00 × 10^-7 Molar, read-out: Percent of Protection) of 25.3%, an inhibition at 0.02 µM (HIV-1; Human immunodeficiency virus 1, CCRF-CEM, dose 2.00 × 10^-8 Molar, read-out: Percent of Protection) of 6% and an inhibition at 6.32 µM (HIV-1; Human immunodeficiency virus 1, CCRF-CEM, dose 6.32 × 10^-6 Molar, read-out: Percent of Protection) of 102%. The inhibition at 0.633 µM (HIV-1; Human immunodeficiency virus 1, CCRF-CEM, dose 6.33 × 10^-7 Molar, read-out: Percent of Protection) was 90%, the inhibition at 0.0634 µM (HIV-1; Human immunodeficiency virus 1, CCRF-CEM, read-out: Percent of Protection, dose 6.34 × 10^-8 Molar) was 8.87% and the inhibition at 0.00635 µM (HIV-1; Human immunodeficiency virus 1, CCRF-CEM, read-out: Percent of Protection, dose 6.35 × 10^-9 Molar) was 3%. The activity at 20 µM (HIV-1; Human immunodeficiency virus 1, Lymphocyte, dose 2.00 × 10^-5 Molar, read-out: Percent of Control, Infected) was 86.2%, the activity at 2 µM (HIV-1; Human immunodeficiency virus 1, Lymphocyte, dose 2.00 × 10^-6 Molar, read-out: Percent of Control, Infected) was 88.8% and the activity at 0.2 µM (HIV-1; Human immunodeficiency virus 1, Lymphocyte, dose 2.00 × 10^-7 Molar, read-out: Percent of Control, Infected) was 25.3%. The activity at 0.02 µM (HIV-1; Human immunodeficiency virus 1, Lymphocyte, dose 2.00 × 10^-8 Molar, read-out: Percent of Control, Infected) was 6%, the activity at 6.32 µM (HIV-1; Human immunodeficiency virus 1, Lymphocyte, dose 6.32 × 10^-6 Molar, read-out: Percent of Control, Infected) was 102% and the activity at 0.633 µM (HIV-1; Human immunodeficiency virus 1, Lymphocyte, dose 6.33 × 10^-7 Molar, read-out: Percent of Control, Infected) was 90%. The activity at 0.0634 µM (HIV-1; Human immunodeficiency virus 1, Lymphocyte, dose 6.34 × 10^-8 Molar, read-out: Percent of Control, Infected) was 8.87%, the activity at 0.00635 µM (HIV-1; Human immunodeficiency virus 1, Lymphocyte, dose 6.35 × 10^-9 Molar, read-out: Percent of Control, Infected) was 3% and the “TI50 (IC/EC), Therapeutic Index” value (HIV-1) was 6.41 × 10^+1. The pIC50 ([1]; Homo sapiens, CCRF-CEM, 144 h, read-out: IC50 (50% inhibitory concentration for cell growth), uninfected CEM cells, 6 days, XTT) was less than 4.70, the activity at 20 µM ([1]; Homo sapiens, CCRF-CEM, dose 2.00 × 10^-5 Molar, read-out: Percent of Control, Uninfected) was 96.1% and the activity at 2 µM ([1]; Homo sapiens, CCRF-CEM, dose 2.00 × 10^-6 Molar, read-out: Percent of Control, Uninfected) was 92.6%. It also gave an activity at 0.2 µM ([1]; Homo sapiens, CCRF-CEM, dose 2.00 × 10^-7 Molar, read-out: Percent of Control, Uninfected) of 87.1%, an activity at 0.02 µM ([1]; Homo sapiens, CCRF-CEM, dose 2.00 × 10^-8 Molar, read-out: Percent of Control, Uninfected) of 91.2% and an activity at 6.32 µM ([1]; Homo sapiens, CCRF-CEM, dose 6.32 × 10^-6 Molar, read-out: Percent of Control, Uninfected) of 104%. The activity at 0.633 µM ([1]; Homo sapiens, CCRF-CEM, dose 6.33 × 10^-7 Molar, read-out: Percent of Control, Uninfected) was 86.3%, the activity at 0.0634 µM ([1]; Homo sapiens, CCRF-CEM, dose 6.34 × 10^-8 Molar, read-out: Percent of Control, Uninfected) was 92% and the activity at 0.00635 µM ([1]; Homo sapiens, CCRF-CEM, dose 6.35 × 10^-9 Molar, read-out: Percent of Control, Uninfected) was 91.2%.
